According to patent publication US20110009335A1, “Anticancer Treatments” (priority 2008, published 2011):
Starred links: 1 amine or outer side, 2 acyl side, 3 side chain; linkers in the order of their positions; H or OH if unused. Positions of bridges follow the written chain, without caps; N, C: chain ends. Non-standard residues stand in square brackets, D forms with d. Residues, ends and D or L forms follow the SMILES beside them. *: point of attachment. X1 = CC[C@H](C)[C@@H](N[*:1])[C@@H](O)CC(=O)O[C@H](C(=O)[C@H](C)C(=O)[*:2])C(C)C; NMeY = CN[C@@H](Cc1ccc(O)cc1)C(=O)O; dNMeL = CN[C@H](CC(C)C)C(=O)O; Pyruvoyl = CC(=O)C(=O)*

System: CAKI-1 human renal tumor xenograft
Test: Aplidine with sunitinib, CAKI-1 xenograft in athymic nude mice (Example 2)
Type: in vivo
Conditions: doses and schedules tested
Protocol: Female athymic nude mice (Harlan Sprague Dawley, Madison, Wis.) were utilized for all experiments. Mice were implanted with tumor fragments or a cell suspension when mice were 5 weeks of age. Animals were housed in ventilated rack caging, 5 mice per cage, with food and water ad libitum. The mice were acclimated for 1 week prior to being implanted with tumor fragments or cell suspensions.
Cells from in vitro passage 4-20 were implanted SC into study mice: 5×10^6 cells/mouse in 0.2 ml 50% Matrigel/50% medium without antibiotics or serum, using a 23 G needle and 1 cc syringe. Bacterial cultures were performed on aliquots of the cells prepared for implantation.
Tumor measurements were determined as disclosed in Example 1.
Body weights were recorded on treatment days and when tumor sizes were measured. In those days wherein the two drugs were administered the same day, the combination therapy groups were treated by co-administering the two drugs at the same time, with no attempt to sequence the treatments. […]
Tumor size measurements were recorded twice weekly from the treatment initiation until the termination of the study.
Mean, standard deviation and standard error of the mean were determined for tumor volume for all animal groups at all assessments. […]

Structure (SMILES): CC[C@H](C)[C@H]1NC(=O)[C@@H](NC(=O)[C@@H](CC(C)C)N(C)C(=O)[C@@H]2CCCN2C(=O)C(C)=O)[C@@H](C)OC(=O)[C@H](Cc2ccc(OC)cc2)N(C)C(=O)[C@@H]2CCCN2C(=O)[C@H](CC(C)C)NC(=O)[C@@H](C)C(=O)[C@H](C(C)C)OC(=O)C[C@@H]1O [aplidine, dehydrodidemnin B] (Pyruvoyl-P[dNMeL]T[X1]LP[NMeY](Me); ester 3-C)
- antitumor activity as single agent (monotherapy): inactive
